Data reported in patent US9115122B2, “Non-ATP dependent inhibitors of extracellular signal-regulated kinase (ERK)” (UNIVERSITY OF MARYLAND, BALTIMORE, priority 2012, dated 2015).
Read-outs that look alike come from different tables or passages of the source.

How the values were obtained:
Assay type in all cases: cell-based
[1] = test system: A375 melanoma cells; experiment: Dose-response growth inhibition (GI50) of select compounds; conditions: two days
Method: (§1) An example of the dose response curve for compound 30h and the BRaf inhibitor PLX4032 for inhibiting the growth of melanoma cell lines is shown in FIG. 14. […] A summary of GI50 values for select compounds along with comparisons to know ERK pathway inhibitors in various cell lines is shown in Table 13. […] First, thiazolidinedione compounds have been identified to be selective inhibitors of cancer cell lines containing activated ERK signaling. Second, changes in the 4-ethoxyphenyl component of the parent compound 76 improve selectivity and potency for inhibiting melanoma cell growth. Third, compound 30h is a potent inhibitor of melanoma cell lines that have become resistant to the clinically relevant BRaf and MEK inhibitors. […] Lastly, 30h is as potent as the ATP-competitive pyrazolopyridazinamine ERK inhibitor (FR180204) in preventing melanoma cell proliferation and provides an alternative non-ATP-dependent approach to target cancer cells that are dependent on active ERK signaling.
(§2) Melanoma cells (A375, SK-MEL-28, and RPMI7951) were seeded at a density of 5,000 per well in 96-well plate. After overnight incubation, cells were treated with varying doses of PLX4032 (A) or 31h (B) for two days. Cell viability was determined by the addition of Cell Titer-Blue Reagent (20 μL/well) followed by 2 hours of incubation at 37° C. after which fluorescence was recorded (555/585 nm). Cell viability was expressed as percentage of vehicle control and data represent the average of three individual experiments.

[2] = test system: RPMI7951 melanoma cells; experiment: as above; conditions: two days
Method: as §1, §2

[3] = test system: SK-MEL-28 melanoma cells; experiment: as above; conditions: two days
Method: as §1, §2

[4] = test system: HeLa cells; experiment: as above
[5] = test system: Jurkat cells; experiment: as above
[6] = test system: A375 melanoma cells; experiment: Cell proliferation WST-1 assay, single dose (Example 4); conditions: 100 μM, 48 hours
How it was run: (§3)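 Seed ~5000 cells/well; recover 16-20 h; treat with compound 48 h; add WST-1; read A450, subtract A650; normalize to DMSO-only cells.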

[7] = test system: HL-60 leukemic cells; experiment: as above; conditions: 100 μM, 48 hours
How it was run: as §3

[8] = test system: HeLa cervical carcinoma cells; experiment: as above; conditions: 100 μM, 48 hours
How it was run: as §3

[9] = test system: Jurkat T-cell leukemia cells; experiment: as above; conditions: 100 μM, 48 hours
How it was run: as §3

[10] = test system: RPMI-7951 melanoma cells; experiment: as above; conditions: 100 μM, 48 hours
How it was run: as §3

[11] = test system: SK-MEL-28 melanoma cells; experiment: as above; conditions: 100 μM, 48 hours
How it was run: as §3

[12] = test system: serum response element (SRE); experiment: SRE promoter luciferase assay, HeLa cells (Example 4); conditions: EGF
Method: HeLa cells were seeded in 24-well plates (4×10^4 cells/well) and incubated 18 hours prior to achieve ˜60-70% confluent. Cells were transfected with activator protein-1 (pAP1(PMA)-TA-Luc; Clontech) or the serum response element (pGL4.33-SRE; Promega) luciferase reporter plasmids (250 ng/well) using Lipofectamine™ (Invitrogen). After 16 hours, cells were treated with increasing amount of compounds as indicated for 20 minutes, followed by stimulation with EGF (25 ng/mL) for 4.5 hr. The luciferase activity in the cell extracts was determined with a Dual Luciferase Assay System (Promega) according to the manufacturer's instructions. Luciferase activities were monitored with a Lumat LB 9507 luminometer (Berthold Technology) and data were normalized to the amount of protein in each sample.

Row | SMILES | GI50 ([1]; Homo sapiens, A-375, 48 h) | GI50 ([2]; Homo sapiens, RPMI-7951, 48 h) | GI50 ([3]; Homo sapiens, SK-MEL-28, 48 h) | GI50 ([4]; Homo sapiens, HeLa) | GI50 ([5]; Homo sapiens, Jurkat) | Cell Viability (% of Vehicle) A375 [6] | Cell Viability (% of Vehicle) HL-60 [7] | Cell Viability (% of Vehicle) HeLa [8] | Cell Viability (% of Vehicle) Jurkat [9] | Cell Viability (% of Vehicle) RPMI-7951 [10] | Cell Viability (% of Vehicle) SK-MEL-28 [11] | inhibition of ERK-mediated SRE promoter activity [12] | GI50 [1] | GI50 [2] | GI50 [3] | GI50 [4] | GI50 [5]
1 | Cn1cnc2c(F)c(Nc3ccc(Br)cc3Cl)c(C(=O)NOCCO)cc21 [AZD6244, reference compound] | 0.03 µM | 20 µM | 0.17 µM | > 10 µM | > 10 µM |  |  |  |  |  |  |  |  |  |  |  | 
2 | CCOc1ccc(/C=C2\SC(=O)N(CCCN)C2=O)cc1 [Compound 22a, (Z)-3-(3-aminopropyl)-5-(4-ethoxybenzylidene)thiazolidine-2,4-dione] | 24 µM | 17 µM | 46 µM |  |  | 0.7 ± 0.1 % of Vehicle | 8.0 ± 72 % of Vehicle | 12 ± 2 % of Vehicle | 9.0 ± 2 % of Vehicle | 0.6 ± 0.1 % of Vehicle | 0.5 ± 0.01 % of Vehicle | selective inhibition of the SRE promoter activity |  |  |  |  | 
3 | Cc1ccc(/C=C2\SC(=O)N(CCN)C2=O)cc1 [Compound 30d, (Z)-3-(2-aminoethyl)-5-(4-methylbenzylidene)thiazolidine-2,4-dione] |  |  |  |  |  | 23 ± 6 % of Vehicle | 4.8 ± 2 % of Vehicle | 54 ± 3 % of Vehicle | 71 ± 6 % of Vehicle | 23 ± 1 % of Vehicle | 31 ± 7 % of Vehicle |  |  |  |  |  | 
4 | CCCc1ccc(/C=C2\SC(=O)N(CCN)C2=O)cc1 [Compound 30e, (Z)-3-(2-aminoethyl)-5-(4-propylbenzylidene)thiazolidine-2,4-dione] |  |  |  |  |  | 0.6 ± 0.1 % of Vehicle | 5.9 ± 2 % of Vehicle | 11 ± 2 % of Vehicle | 16 ± 8 % of Vehicle | 0.7 ± 0.1 % of Vehicle | 0.6 ± 0.4 % of Vehicle |  |  |  |  |  | 
5 | NCCN1C(=O)S/C(=C\c2ccc(O)cc2)C1=O [Compound 30f, (Z)-3-(2-aminoethyl)-5-(4-hydroxybenzylidene)thiazolidine-2,4-dione] |  |  |  |  |  | 8.8 ± 2 % of Vehicle | 17 ± 12 % of Vehicle | 63 ± 10 % of Vehicle | 96 ± 3 % of Vehicle | 24 ± 5 % of Vehicle | 38 ± 3 % of Vehicle |  |  |  |  |  | 
6 | NCCN1C(=O)S/C(=C\c2ccccc2O)C1=O [Compound 30i, (Z)-3-(2-aminoethyl)-5-(2-hydroxybenzylidene)thiazolidine-2,4-dione] |  |  |  |  |  | 78 ± 3 % of Vehicle | 24 ± 8 % of Vehicle | 68 ± 3 % of Vehicle | 99 ± 5 % of Vehicle | 102 ± 10 % of Vehicle | 85 ± 9 % of Vehicle |  |  |  |  |  | 
7 | CC(C)COc1ccccc1/C=C1\SC(=O)N(CCN)C1=O [Compound 30j, (Z)-3-(2-aminoethyl)-5-(2-isobutoxybenzylidene)thiazolidine-2,4-dione] |  |  |  |  |  | 0.8 ± 0.02 % of Vehicle | 9.5 ± 3.4 % of Vehicle | 0.8 ± 0.1 % of Vehicle | 1.8 ± 0.1 % of Vehicle | 1.0 ± 0.04 % of Vehicle | 1.0 ± 0.1 % of Vehicle |  |  |  |  |  | 
8 | NCCN1C(=O)S/C(=C\c2ccccc2OCc2ccccc2)C1=O [Compound 30k, (Z)-3-(2-aminoethyl)-5-(2-(benzyloxy)benzylidene)thiazolidine-2,4-dione] |  |  |  |  |  | 0.6 ± 0.03 % of Vehicle | 8.3 ± 3.4 % of Vehicle | 0.6 ± 0.1 % of Vehicle | 1.5 ± 0.1 % of Vehicle | 0.9 ± 0.1 % of Vehicle | 0.6 ± 0.04 % of Vehicle |  |  |  |  |  | 
9 | N#Cc1ccc(COc2ccccc2/C=C2\SC(=O)N(CCN)C2=O)cc1 [Compound 30l, (Z)-4-((2-((3-(2-aminoethyl)-2,4-dioxothiazolidin-5-ylidene)methyl)phenoxy)methyl)benzonitrile] |  |  |  |  |  | 0.5 ± 0.04 % of Vehicle | 5.7 ± 2 % of Vehicle | 8.0 ± 2 % of Vehicle | 6.7 ± 1 % of Vehicle | 0.6 ± 0.03 % of Vehicle | 0.5 ± 0.01 % of Vehicle |  |  |  |  |  | 
10 | Nc1[nH]nc2nnc(-c3c(-c4ccccc4)nn4ccccc34)cc12 [FR180204, reference compound] |  |  |  |  |  |  |  |  |  |  |  |  | 5 µM | 11 µM | 4 µM | > 10 µM | > 10 µM
11 | CCCS(=O)(=O)Nc1ccc(F)c(C(=O)c2c[nH]c3ncc(-c4ccc(Cl)cc4)cc23)c1F [PLX4032, reference compound] | 0.07 µM | 11 µM | 0.38 µM | > 10 µM | > 10 µM |  |  |  |  |  |  |  |  |  |  |  | 
